54 molecules from PubChem BioAssay AID602210 (Sanford-Burnham Center for Chemical Genomics, 2012) can be followed below.

Calls of active or inactive are those of the source. The rule behind the calls is not given here. Where only a bound is given, the exact number is not on record here.

A short description of the assay: modulators of 2-deoxyglucose-induced H9c2 death, dose response, myocardial damage modulator project, cell-based, ATPlite luminescence, rat, set 2 (AID 602210). To be noted: H9c2 rat cardiomyoblasts, 2-deoxyglucose-induced death, 2 h. A general note: Cellular ATP, detected with luciferase, serves as a proxy for viable cell number.
`COc1cc(/C=N/n2nnnc2Nc2ccccc2)cc(OC)c1OC`: the IC50 (as a rule, the point on the concentration scale where inhibition reaches its midpoint) is 38.1 µM (inactive). As for `N#Cc1c(-c2ccco2)cc(-c2cccnc2)nc1N`, the figure is 26.1 µM (inactive); as for `CN(CC1COc2ccccc2O1)c1nc(-c2cccnc2)nc2ccccc12` (centres undefined), 18.9 µM (inactive). For the molecule `CC(C)(C)OC(=O)CNC(=O)c1[nH]cnc1C(=O)Nc1ccc(CNC(=O)OC(C)(C)C)cc1`, the IC50 was 5.09 µM.

As to `COC(=O)c1cc(NC(=O)c2cc3ccccc3o2)cc(C(=O)OC)c1`, the IC50 is 23.9 µM (inactive). With `COc1ccc(Nc2nc(C(=O)N3CCc4cc(OC)c(OC)cc4C3)cs2)cc1`, the IC50 is 14.2 µM (inactive). On to `COc1ccc(NC(=O)c2cc(-c3ccccn3)nc3ccccc23)cc1S(=O)(=O)N(C)C`, for which the IC50 is 5.87 µM. As for `O=C(NCCc1ccccc1Cl)c1ccc2nc3ccccc3c(=O)n2c1`, the figure is 28.7 µM (inactive); as for `COc1ccc(N(CC(=O)Nc2cccc(C(C)=O)c2)S(=O)(=O)c2ccc(NC(C)=O)cc2)cc1`, 13.4 µM (inactive); as for `CC1(C)Cc2c(c(N3CCOCC3)nc3sc4c(NN)ncnc4c23)CS1`, > 79 µM (inactive). As for `COc1cc(/C=C/c2nnc3c4ccccc4ncn23)cc(OC)c1OC`, the figure is 7.24 µM; as for `CC(=O)c1ccc(-c2cnc3c(NC=O)cc(-c4cccc(NS(C)(=O)=O)c4)cn23)cc1`, 18 µM (inactive); as for `CCOc1ccc(-n2cc(-c3ccccc3)c3c(N4CCOCC4)ncnc32)cc1`, 10.3 µM (inactive). For `COCCn1nnnc1CN(CCc1ccccc1)Cc1cc2cc(OC)ccc2[nH]c1=O`, the IC50 was > 79 µM (inactive). As for `COc1cc(/C=C(\C#N)C(=O)Nc2ccccc2F)ccc1OCCN1CCOCC1`, the figure is 41.2 µM (inactive); as for `Cc1nn(-c2ccccc2)c(N2CCCC2)c1/C=N/NC(=O)c1cc(-c2ccccn2)nc2ccccc12`, 12.6 µM (inactive). Consider `COc1cccc(C(=O)CSc2nnc(-c3cc(OC)c(OC)c(OC)c3)o2)c1`, for which the IC50 is > 79 µM (inactive). Turning to `CCOc1cc(/C=C/c2ccc3cccc([N+](=O)[O-])c3n2)ccc1OCC(=O)N(C)C`, the IC50 is 18.3 µM (inactive). With `CCOC(=O)C1CCN(c2cc3c(cc2NC(=O)c2ccc(F)cc2)n(C)c(=O)n3C)CC1`, the IC50 is 28.5 µM (inactive). In the case of `COc1ccc(N(Cc2cc3cc(OC)ccc3[nH]c2=O)C(=O)c2cccnc2)cc1`, the IC50 was > 79 µM (inactive).

Consider `COc1cc(-c2cc(NC(C)=O)c3ncc(-c4cc(OC)c(OC)c(OC)c4)n3c2)cc(OC)c1OC`, for which the IC50 was 9.01 µM. With `COc1cc(NC(=O)c2ccc(-c3cn[nH]c3)c3ccoc23)cc(OC)c1OC`, the IC50 is 15.4 µM (inactive). For `COc1cccc(CN2CCN(C(=O)c3cc(-c4cccnc4)nc4ccc(C)cc34)CC2)c1`, the IC50 is 48.8 µM (inactive).

With `COc1ccc(-c2nnc(-c3cc(OC)c(OC)c(OC)c3)o2)cc1OC`, the IC50 was 15.9 µM (inactive). Turning to `CC(=O)Nc1ccc(-c2csc(NC(=O)Nc3ccccc3)n2)cc1`, the IC50 was 1.94 µM. As to `COC(=O)c1cc2ccc(OC)cc2c2cc(OC)c(OC)cc12`, the IC50 is > 79 µM (inactive). As to `COC(=O)c1ccccc1NC(=O)c1ccc2nccnc2c1`, the IC50 was 48.8 µM (inactive). On to `Cc1ccc2[nH]c(=O)c(CN(Cc3ccco3)S(=O)(=O)c3c(C)ccc4nsnc34)cc2c1`, for which the IC50 was 45.3 µM (inactive). As for `CCN(C[C@H]1N[C@@](CC)(C(=O)OC)[C@H]2C(=O)N(Cc3ccccc3)C(=O)[C@@H]12)C(=O)c1ccc(C(C)(C)C)cc1`, the figure is 3.95 µM; as for `O=[N+]([O-])c1ccc(Nc2nc(N/N=C/c3cccc(F)c3)nc(N3CCCC3)n2)cc1`, 10.2 µM (inactive); as for `CCOC(=O)c1cc2c(=O)n3cccc(C)c3nc2n(CCCOC)c1=NC(=O)c1cccnc1`, 11.3 µM (inactive). As for `CC1Nc2ncnc(N3CCN(c4ccccc4)CC3)c2N(Cc2ccc(Cl)cc2)C1=O` (centres undefined), the IC50 is 21.4 µM (inactive). As to `COc1cc(NC(=O)c2cc3ccccc3cc2OC)ccc1NC(=O)c1cccs1`, the IC50 is 3.78 µM. `CCOc1ccccc1NC(=O)c1oc2ccccc2c1NC(=O)C1CCCO1` (centres undefined): the IC50 is 12.6 µM (inactive). Turning to `CC1CN(c2nn3c(=O)c4ccccc4nc3c3ccccc23)CC(C)O1` (centres undefined), the IC50 is > 79 µM (inactive).

Consider `O=c1c2ccccc2nc2c3ccccc3c(NCCO)nn12`, for which the IC50 was 70.6 µM (inactive). Turning to `CCn1cc(C(=O)Nc2cccc(NC(C)=O)c2)c2cc(OC)c(OC)cc2c1=O`, the IC50 is 39.1 µM (inactive). Consider `O=C(N/N=C/c1ccccn1)c1cc(-c2cccc3ccccc23)n[nH]1`, for which the IC50 was 20.7 µM (inactive). As for `C[C@H](CO)N1C[C@H](C)[C@@H](CN(C)C(=O)Nc2ccc3c(c2)OCO3)Oc2c(NC(=O)Nc3ccc(C(F)(F)F)cc3)cccc2C1=O`, the figure is > 79 µM (inactive). In the case of `CCOC(=O)c1nn(-c2cccc(OC)c2)c2nc(Nc3ccccc3)cc(=O)n12` it was > 79 µM (inactive); in that of `COc1cccc(C(=O)Nc2c(C(N)=O)oc3ccccc23)c1`, 15.1 µM (inactive); in that of `COc1ccc(-c2ccc3c(c2)S(=O)(=O)c2cccc(C(=O)N4CCN(c5c(Cl)cncc5Cl)CC4)c2C3=O)cc1OC`, 8.36 µM. `COc1cc(-c2cc(C(=O)N3CCN(c4ccccn4)CC3)c3ccccc3n2)cc(OC)c1OC`: the IC50 is 26.2 µM (inactive). Consider `COc1cc(C(=O)Nc2cc3c(cc2N2CCCCC2)n(C)c(=O)n3C)cc(OC)c1OC`, for which the IC50 is 23.7 µM (inactive).

Regarding `COc1ccc(-c2cc(-c3ccc(O)cc3)nc(N)c2C#N)cc1OC`, the IC50 is > 79 µM (inactive). As for `COc1cc(C(=O)NCC(=O)N/N=C/c2ccc(-c3cccc([N+](=O)[O-])c3)o2)cc(OC)c1OC`, the figure is 17.5 µM (inactive); as for `CC(=O)c1cccc(-c2cnc3c(NC=O)cc(-c4ccccc4F)cn23)c1`, 17.9 µM (inactive). `O=C(COC(=O)c1cc(-c2cccnc2)nc2ccccc12)Nc1ccc(F)cc1F`: the IC50 is 32.5 µM (inactive). Take `Cc1cc(N)n(-c2nc(-c3cccnc3)nc3ccccc23)n1`: the IC50 was 26.1 µM (inactive). For the molecule `COc1ccc(-c2cc(C(=O)NNC(=O)c3csc(N4CCOCC4)n3)c3ccccc3n2)cc1`, the IC50 was 7.31 µM.

`Cc1c(/C=N/NC(=O)c2ccc(O)cc2)c2ccccn2c1C(=O)c1ccc(F)cc1`: the IC50 is > 79 µM (inactive). For `CS(=O)(=O)c1ccc(-c2cnc3c(NC=O)cc(-c4ccsc4)cn23)cc1`, the IC50 is 23 µM (inactive).

Turning to `CCOC(=O)C1CCN(c2cc3c(cc2NC(=O)c2ccccc2Cl)n(C)c(=O)n3C)CC1`, the IC50 is 15.2 µM (inactive). Take `O=C(NCC1CCCO1)C(c1ccc(F)cc1)N(C(=O)Cn1nnc(-c2ccc(F)cc2)n1)c1cccc(O)c1` (centres undefined): the IC50 was 18.3 µM (inactive).
